Like-named read-outs stand apart in the source and are kept apart here.
What was measured:
[1] = In vivo side effects evaluation (body weight, serum biochemistry, H&E histology); set-up: species or system C57BL/6 mice; settings: for serum AST and ALT levels: 50 mg kg^-1, compared with immunosuppressed control group; for histological analysis of major organs (liver, kidney, spleen): H&E, day 15 after treatments
[2] = target: T1, soybean LOX-1 (Glycine max, UniProt P08170); set-up: method as in doi:10.1007/s00044-013-0506-7; settings: read-out: IC50 against soybean LOX-1; cited from earlier work
T1 construct: purchased Sigma-Aldrich
T1 sequence (P08170 1-839): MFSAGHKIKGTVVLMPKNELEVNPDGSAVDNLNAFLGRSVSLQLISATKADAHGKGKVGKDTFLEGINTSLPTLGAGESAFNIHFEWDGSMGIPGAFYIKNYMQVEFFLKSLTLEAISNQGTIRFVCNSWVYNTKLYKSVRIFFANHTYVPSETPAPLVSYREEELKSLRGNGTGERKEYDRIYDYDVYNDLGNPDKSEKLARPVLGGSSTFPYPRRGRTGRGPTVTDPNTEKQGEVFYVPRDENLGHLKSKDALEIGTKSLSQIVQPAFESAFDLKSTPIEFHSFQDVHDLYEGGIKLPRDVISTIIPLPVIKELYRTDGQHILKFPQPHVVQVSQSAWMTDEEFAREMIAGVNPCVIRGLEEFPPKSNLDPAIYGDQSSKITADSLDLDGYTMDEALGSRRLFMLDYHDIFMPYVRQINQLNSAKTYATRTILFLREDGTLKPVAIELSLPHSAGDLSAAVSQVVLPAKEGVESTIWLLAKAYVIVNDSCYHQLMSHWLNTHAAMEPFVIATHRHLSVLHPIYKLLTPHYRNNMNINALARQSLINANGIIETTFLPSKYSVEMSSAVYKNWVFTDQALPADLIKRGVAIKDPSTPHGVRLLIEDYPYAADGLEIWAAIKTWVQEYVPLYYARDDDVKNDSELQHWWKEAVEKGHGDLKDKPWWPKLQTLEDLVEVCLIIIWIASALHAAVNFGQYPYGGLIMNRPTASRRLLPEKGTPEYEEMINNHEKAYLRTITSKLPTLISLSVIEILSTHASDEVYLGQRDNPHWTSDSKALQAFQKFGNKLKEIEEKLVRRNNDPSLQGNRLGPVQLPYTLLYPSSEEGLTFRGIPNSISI

[3] = tested on: PC-3 cells; assay: Flow cytometric analysis of cell death (Annexin V-FITC/PI) in PC-3 cells; type: cell-based, human; settings: for change of Q2 (Annexin V positive/PI positive) population after co-treatment with deferoxamine: PC-3, compared with compound only; for percentage of early and late apoptotic/ferroptotic cells (Q3+Q2): PC-3, treated with IC50 value of the compound, 24 h, control 0.133%
Procedure: To determine the mechanism of cell death induced by 4-MMPB analogs, flow cytometry was employed using the Annexin V-FITC kit with PI (BioLegend, San Diego, USA) according to the manufacturer’s instructions. We performed co-treatment experiments with the compounds and a ferroptosis inhibitor (IC50 values of 4-PMPB + , 4-EMPB + , and 4-MMPB + deferoxamine (80 µM)) on PC-3 cells, to distinguish between ferroptosis and apoptosis mechanisms. […] Then the cells were collected by trypsinization (0.25% trypsin-1 mM EDTA), washed twice with PBS, followed by centrifugation, and resuspended in a binding buffer. Samples were stained with Annexin V-FITC/ PI followed by 15 min incubation at room temperature. Finally, cells were subjected to flow cytometry (BD Accuri C6, San Jose, USA) and the data were analyzed by FlowJo 7.6.1 software (Ashland, USA). Moreover, PC-3 cells treated with 0.3 N HCl were used as a control to eliminate the effects of solvent.

[4] = tested on: HDF cells; assay: MTT cytotoxicity assay on HDF normal cells; type: cell-based, human
Procedure: (§1) Two mg of each compound was dissolved in 100 μl hydrochloric acid (HCl 0.3 N) to make a primary stock solution. Different concentrations (1.56–50 μg ml^−1) were then prepared by serial dilution from the primary stock solution and further diluted in the culture medium.
(§2) PC-3 cells were obtained from Pasteur Institute (Tehran, Iran) and routinely cultured in RPMI 1640 supplemented with 10% FBS. In order to investigate the toxicity of the compounds on normal cells, in vitro experiments were also performed on HDF cells. These cells were kindly provided by Academic Center for Education, Culture and Research (ACECR, Mashhad, Iran) and grown in DMEM supplemented with 10% FBS. Both cell lines were kept at 37 °C containing 5% CO2 in a humidified incubator.
(§3) The MTT reduction assay is a standard quantitative method to evaluate cytotoxicity. This assay measures cellular dehydrogenases, and is considered as an easy, safe and highly reproducible method. Viable cells reduce yellow tetrazolium salt to purple formazan crystals and thus the color change serves as a marker reflecting cell viability.
(§4) PC-3 and HDF cells were seeded in 96-well plates (NEST, China) at a density of 6000 and 8000 cells per well, respectively and incubated at 37 °C with 5% CO2. […] After 24, 48 and 72 h of treatments, 20 μl MTT solution (5 mg ml^−1 in PBS; phosphate buffered saline) was added to each well, and cells were incubated in the dark for 3–4 h. The media were then removed and purple crystals were dissolved in 160 μl DMSO. The absorbance in each well was measured at 540 nm as reference wavelength in an enzyme-linked immunosorbent assay (ELISA) reader (Awareness Technology, USA) and relative optical density (OD) values were recorded. The percentage of viable cells was calculated using the following equation [49]: Cell viability%=100×ODmeanof treated cells-ODmeanblank/ODmeanof negative control cellsHCl0.3 N-ODmeanblank.

[5] = target: T1, soybean LOX-1; assay: Soybean LOX-1 enzyme inhibitory assessment (DMAB-MBTH colour assay, linoleic acid substrate); type: biochemical; settings: from sigmoidal dose-response curves, n = 3; read-out: IC50, soybean LOX-1 inhibition
Procedure: Linoleic acid and two assay solutions (A and B) were prepared in advance. Solution A was 50 mM 3-(dimethylamino)benzoic acid (DMAB) in l00 mM phosphate buffer (pH 7.0). Solution B was a mixture of l0 mM 3-methyl-2-benzothiazolinonehydrazone hydrochloride (MBTH; 3 ml), and hemoglobin (5 mg ml^−1, 3 ml) in 50 mM phosphate buffer at pH 5.0 (25 ml). A linoleic acid solution was prepared by mixing 5.6 mg linoleic acid with 0.5 ml methanol and then diluted with 100 mM KOH to a final volume of 5 ml (4 mM). In the assay, a solution of inhibitors in dimethyl sulfoxide (DMSO) (12.5 μl), soybean LOX-1 (4000 units ml^−1 in 50 mM phosphate buffer pH 7.0; 25 μl), and phosphate buffer, pH 7.0 (50 mM; 435 μl) were mixed in 48-well plates, and pre incubation was carried out for 10 min at 30 °C. A control test was performed with the same volume of DMSO. After the pre incubation, linoleic acid solution (25 μl) was added to start the peroxidation reaction at 30 °C, and 10 min later, solution A (135 μl) and then solution B (65 μl) were added to start the color formation. After 3 min, 100 μl of a 2% sodium dodecyl sulphate (SDS) solution was added to terminate the reaction. The absorbance at 598 nm was compared with the control. These experiments were performed in triplicate and the data were analyzed using GraphPad Prism 6.0 (San Diego, USA).
Lipoxygenase inhibitory activity of 4-MMPB and its analogs was assessed on soybean LOX-1 and the inhibitory potencies (IC50 values) of the mentioned compounds were calculated from their sigmoidal dose–response curves (Fig. 2).

[6] = tested on: PC-3 cells; assay: MTT cytotoxicity assay on PC-3 cells; type: cell-based, human; settings: PC-3, MTT
Procedure: as §1, §2, §3, §4

[7] = tested on: PC-3 tumors; assay: Anti-tumor effect in PC-3 xenograft tumor model in immunocompromised C57BL/6 mice
[8] = tested on: 15-LOX-1; settings: read-out: IC50 against 15-LOX-1; cited from earlier work
[9] = target: 15-lipoxygenase; set-up: method as in PMID 17210254; settings: read-out: IC50, 15-lipoxygenase inhibition; cited from earlier work
[10] = 10 and 50 mg kg^-1, 15 days follow up
[11] = 24 h, read-out: IC50 (µM) ± SD (HDF) 24 h
[12] = 48 h, read-out: IC50 (µM) ± SD (HDF) 48 h
[13] = 72 h, read-out: IC50 (µM) ± SD (HDF) 72 h
[14] = 24 h, read-out: IC50 (µM) ± SD (PC-3) 24 h
[15] = 48 h, read-out: IC50 (µM) ± SD (PC-3) 48 h
[16] = 72 h, read-out: IC50 (µM) ± SD (PC-3) 72 h
[17] = high dose 50 mg kg^-1, 15 days, vs PBS and 0.3 N HCl controls

Compound | serum AST and ALT levels [1] | body weight [1, 10] | histological analysis of major organs (liver, kidney, spleen) [1] | change of Q2 (Annexin V positive/PI positive) population after co-treatment with deferoxamine [3] | percentage of early and late apoptotic/ferroptotic cells (Q3+Q2) [3] | cytotoxicity on normal (HDF) cells, in words [4] | IC50 [4, 11] | IC50 [4, 12] | IC50 [4, 13] | IC50 [5] | IC50 [6, 14] | IC50 [6, 15] | IC50 [6, 16] | tumor growth [7, 17] | further results
CCCc1nc(N2CCN(C)CC2)nc2c1Sc1ccccc1N2 [4-PMPB, 4-propyl-2-(4-methylpiperazinyl)pyrimido[4,5-b]benzothiazine] | significantly elevated | no significant changes | no obvious tissue damages | markedly decreased | 52.38% | no obvious cytotoxicity | 1641.1 ± 0.075 µM | 1443.7 ± 0.055 µM | 1028.9 ± 0.139 µM | 8.6 µM | 122 ± 2.62 µM | 88.5 ± 2.31 µM | 57.6 ± 2.12 µM | effectively inhibited | IC50 [2]: 9 µM
N.N.[Cl][Pt][Cl] [Cisplatin, cisplatin, reference compound] |  |  | mild and local accumulation of inflammatory cells |  | 67.8% |  | 153 ± 2.89 µM | 119 ± 2.56 µM | 71.1 ± 3.34 µM |  | 62.3 ± 1.74 µM | 51.5 ± 1.43 µM | 41.6 ± 1.11 µM |  | serum liver enzymes ([1]; cisplatin 2 mg kg^-1, compared to control group, p < 0.0001): significantly increased; body weight ([1]; cisplatin 2 mg kg^-1, day 15, p < 0.01 vs other experimental groups): lowest body weights; tumor growth ([7]; cisplatin 2 mg kg^-1, 15 days, vs controls and lower-dose groups): significant decrease
CC(C)=CCCC(C)=CCCC(C)=CCOc1cccc2oc(=O)ccc12 [5-farnesyloxycoumarin] |  |  |  |  |  |  |  |  |  |  |  |  |  |  | IC50 [8]: 8.32 µM
Cc1nc(N2CCN(C)CC2)nc2c1Sc1ccccc1N2 [4-MMPB, 4-Methyl-2-(4-methylpiperazinyl)pyrimido[4,5-b]benzothiazine] | significantly elevated | no significant changes | no obvious tissue damages | markedly decreased | 41.5% | weak cytotoxicity | 331 ± 3.33 µM | 284 ± 2.98 µM | 186 ± 2.81 µM | 17.1 µM | 101 ± 2.41 µM | 55.6 ± 1.98 µM | 40.8 ± 1.79 µM | effectively inhibited | IC50 [9]: 18 µM
CCc1nc(N2CCN(C)CC2)nc2c1Nc1ccccc1S2 [4-EMPB, 4-Ethyl-2-(4-methylpiperazinyl)pyrimido[4,5-b]benzothiazine] | significantly elevated | no significant changes | no obvious tissue damages | markedly decreased | 60.9% | weak cytotoxicity |  |  |  | 14.3 µM |  |  |  | effectively inhibited | IC50 ([4]; Homo sapiens, 24 h, read-out: IC50 (µM) ± SD (HDF) 24 h): 545.5 ± 1.99 µM; IC50 ([4]; Homo sapiens, 48 h, read-out: IC50 (µM) ± SD (HDF) 48 h): 361.7 ± 2.29 µM; IC50 ([4]; Homo sapiens, 72 h, read-out: IC50 (µM) ± SD (HDF) 72 h): 258.9 ± 1.86 µM; IC50 ([6]; Homo sapiens, 24 h, read-out: IC50 (µM) ± SD (PC-3) 24 h): 107 ± 6.17 µM; IC50 ([6]; Homo sapiens, 48 h, read-out: IC50 (µM) ± SD (PC-3) 48 h): 75 ± 3.39 µM; IC50 ([6]; Homo sapiens, 72 h, read-out: IC50 (µM) ± SD (PC-3) 72 h): 49 ± 6.76 µM
